Experiment: Solubility of anhydrous docetaxel in PEG 300 / PEG 400
Type: physicochemical
Details: per 1 g PEG 300; ultrasonic dispersion for 5 minutes at 70-80° C.
Method: Formulations of anhydrous docetaxel and either PEG 400 or PEG 300 were prepared and mixed using ultrasonic dispersion for 5 minutes at 70-80° C. 1 g of PEG 400 dissolved 25 mg of anhydrous docetaxel. […] 1 g of PEG 300 dissolved 100 mg of anhydrous docetaxel. Accordingly, PEG 300 was able to better solubilize anhydrous docetaxel.

Question: With CC(=O)O[C@@]12CO[C@@H]1C[C@H](O)[C@@]1(C)C(=O)[C@H](O)C3=C(C)[C@@H](OC(=O)[C@H](O)[C@@H](NC(=O)OC(C)(C)C)c4ccccc4)C[C@@](O)([C@@H](OC(=O)c4ccccc4)[C@H]21)C3(C)C [anhydrous docetaxel, (2R,3S)—N-carboxy-3-phenylisoserine,Ntert-butyl ester, 13-ester with 5β-20-epoxy-1,2α,4,7β,10β,13α-hexahydroxytax-11-en-9-one 4-acetate 2-benzoate] as the compound, how does the “amount of anhydrous docetaxel dissolved by 1 g of PEG 300” value read?
Answer: ≥ 100 mg
